# Laboratory results as given in patent US20230192617A1, “AZABICYCLIC(THIO)AMIDES AS FUNGICIDAL COMPOUNDS” (Bayer CropScience Aktiengesellschaft, priority 2020, published 2023).
# Assays:
# [1] = Measurement of Log P values by HPLC on reversed phase columns (EEC directive 79/831 Annex V.A8); type: physicochemical; details: reversed phase HPLC column, method [a]: LC-UV, acidic range, 0.1% formic acid in water and acetonitrile as eluent
# Outline: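 Reversed-phase HPLC with UV detection per EEC 79/831 Annex V.A8, linear 10–95% acetonitrile gradient. Aqueous eluent: 0.1% formic acid (acidic), 0.001 M ammonium acetate (neutral), or 0.1% phosphoric acid (acidic); multiple values in one method joined by "+".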
# Pyrenophora teres = assay: B-10. Pyrenophora teres in vitro cell test; type: cell-based; details: 144 h, 20 ppm of active ingredient, 6 days incubation, liquid culture, absorbance, read-out: efficacy (inhibition of fungal growth)
# Method: (§1) B-10. Pyrenophora teres In Vitro Cell Test [table] Fungicides were solubilized in DMSO and the solution used to prepare the required range of concentrations. The final concentration of DMSO used in the assay was ≤1%. A spore suspension of P. teres was prepared and diluted to the desired spore density. Fungicides were evaluated for their ability to inhibit spore germination and mycelium growth in liquid culture assay. The compounds were added in the desired concentration to the culture medium with spores. After 6 days incubation, fungi-toxicity of compounds was determined by spectrometric measurement of mycelium growth. Inhibition of fungal growth was determined by comparing the absorbance values in wells containing the fungicides with the absorbance in control wells without fungicides.
# Botrytis cinerea [2] = assay: B-11. Botrytis cinerea in vitro cell test; type: cell-based; details: 144 h, 20 ppm of active ingredient, 6 days incubation, liquid culture, absorbance, read-out: efficacy (inhibition of fungal growth)
# Method: as §1, with “B-11. Botrytis cinerea” for “B-10. Pyrenophora teres”, “B. cinerea” for “P. teres”
# [3] = test system: Colletotrichum lindemuthianum; assay: B-8. Colletotrichum lindemuthianum in vitro cell test; type: cell-based; details: 144 h, 20 ppm of active ingredient, 6 days incubation, liquid culture, absorbance, read-out: efficacy (inhibition of fungal growth)
# Outline: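 Spore suspension of C. lindemuthianum in liquid medium exposed to DMSO-solubilized compounds (final DMSO ≤1%) for 6 days. Mycelial growth read by absorbance, with inhibition calculated relative to compound-free control wells.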
# Alternaria alternata = Alternaria alternata in vitro cell test; type: cell-based; details: 120 h, 20 ppm of active ingredient, liquid culture, 5 days incubation, spectrometric measurement of mycelium growth, read-out: efficacy (inhibition of fungal growth)
# Method: as §1, with “B-6. Alternaria alternata” for “B-10. Pyrenophora teres”, “A. alternata” for “P. teres”, “5” for “6”
# Alternaria brassicae = assay: In vivo preventive test on Alternaria brassicae (leaf spot on radish or cabbage); details: 500 ppm of active ingredient, preventive spray on radish or cabbage, evaluated 3 to 4 days after inoculation, read-out: efficacy
# Method: B-1. In Vivo Preventive Test on Alternaria brassicae (Leaf Spot on Radish or Cabbage) [table] The active ingredients were made soluble and homogenized in a mixture of Dimethyl sulfoxide/Acetone/Tween® 80 and then diluted in water to the desired concentration. The young plants of radish or cabbage were treated by spraying the active ingredient prepared as described above. Control plants were treated only with an aqueous solution of Acetone/Dimethyl sulfoxide/Tween® 80. After 24 hours, the plants were contaminated by spraying the leaves with an aqueous suspension of Alternaria brassicae spores. The contaminated radish or cabbage plants were incubated for 3 to 4 days at 20° C. and at 100% relative humidity.
# Botrytis cinerea [4] = assay: In vivo preventive test on Botrytis cinerea (grey mould); details: 500 ppm of active ingredient, preventive spray on gherkin or cabbage, evaluated 4 to 5 days after inoculation, read-out: efficacy
# Method: (§2) B-2. In Vivo Preventive Test on Botrytis cinerea (Grey Mould) [table] The active ingredients were made soluble and homogenized in a mixture of Dimethyl sulfoxide/Acetone/Tween® 80 and then diluted in water to the desired concentration. The young plants of gherkin or cabbage were treated by spraying the active ingredient prepared as described above. Control plants were treated only with an aqueous solution of Acetone/Dimethyl sulfoxide/Tween® 80. After 24 hours, the plants were contaminated by spraying the leaves with an aqueous suspension of Botrytis cinerea spores. The contaminated gherkin plants were incubated for 4 to 5 days at 17° C. and at 90% relative humidity. The contaminated cabbage plants were incubated for 4 to 5 days at 20° C. and at 100% relative humidity.
# Sphaerotheca fuliginea = assay: In vivo preventive test on Sphaerotheca fuliginea (powdery mildew on cucurbits); details: Podosphaera fuliginea, 192 h; 500 ppm of active ingredient; preventive spray on gherkin; evaluated 8 days after inoculation; read-out: efficacy
# Method: as §2, with “B-4. in vivo preventive test” for “B-2. In Vivo Preventive Test”, “Sphaerotheca fuliginea (powdery mildew on cucurbits)” for “Botrytis cinerea (Grey Mould)”, “gherkin” for “gherkin or cabbage”, “Sphaerotheca fuliginea” for “Botrytis cinerea”, “8” for “4 to 5 days at 17° C. and at 90% relative humidity. The contaminated cabbage plants were incubated for 4 to 5”, “70-80%” for “100%”
chromatographic logP [1],Compound,inhibition at 20 ppm (Pyrenophora teres),inhibition at 20 ppm (Botrytis cinerea [2]),inhibition at 20 ppm [3],inhibition at 20 ppm (Alternaria alternata),pest or weed control at 500 ppm (Alternaria brassicae),pest or weed control at 500 ppm (Botrytis cinerea [4]),pest or weed control at 500 ppm (Sphaerotheca fuliginea)
3.63,CC(C)Oc1ccc(CCNC(=O)c2c(Oc3cccc(C(F)(F)F)c3)nnc3ccccc23)cn1 [I-087],90 to 100%,90 to 100%,90 to 100%,90 to 100%,80 to 89%,,
3.45,O=C(NCCc1ccc2c(c1)OCO2)c1c(Oc2cccc(C(F)(F)F)c2)nnc2ccccc12 [I-092],90 to 100%,90 to 100%,90 to 100%,90 to 100%,90 to 100%,90 to 100%,
4.11,Cc1scc(CCNC(=O)c2c(Oc3cccc(C(F)(F)F)c3)nnc3ccccc23)c1C [I-093],90 to 100%,90 to 100%,90 to 100%,70 to 79%,90 to 100%,90 to 100%,
3.53,O=C(NCCc1cccs1)c1c(Oc2cccc(C(F)(F)F)c2)nnc2ccccc12 [I-237],90 to 100%,90 to 100%,80 to 89%,90 to 100%,90 to 100%,70 to 79%,

# The next lines start with the molecule.
Compound,chromatographic logP [1],inhibition at 20 ppm (Pyrenophora teres),inhibition at 20 ppm (Botrytis cinerea [2]),inhibition at 20 ppm [3],inhibition at 20 ppm (Alternaria alternata),pest or weed control at 500 ppm (Alternaria brassicae),pest or weed control at 500 ppm (Botrytis cinerea [4]),pest or weed control at 500 ppm (Sphaerotheca fuliginea)
O=C(NCCOc1ccc(Cl)cc1)c1c(Oc2cccc(C(F)(F)F)c2)nnc2ccccc12 [I-085],3.94,90 to 100%,90 to 100%,80 to 89%,90 to 100%,90 to 100%,,
COc1ccc(CCN(C(C)=O)C(=O)c2c(Oc3cccc(C(F)(F)F)c3)nnc3ccccc23)cc1 [I-090],4.32,90 to 100%,90 to 100%,80 to 89%,,90 to 100%,90 to 100%,
Cc1ccc(C(F)(F)CNC(=O)c2c(Oc3cccc(Cl)c3F)cnc3nccnc23)c(C)c1 [I-100],3.38,90 to 100%,90 to 100%,90 to 100%,90 to 100%,90 to 100%,90 to 100%,
Cc1ccc(C(F)(F)CNC(=S)c2c(Oc3cccc(C(F)(F)F)c3)cnc3ccccc23)c(C)c1 [I-159],5.17,,,70 to 79%,,,,90 to 100%
O=C(NCC(F)(F)c1ccccc1Cl)c1c(Oc2cccc(C(F)(F)F)c2)nnc2ccccc12 [I-214],4.12,90 to 100%,90 to 100%,90 to 100%,90 to 100%,90 to 100%,90 to 100%,
O=C(NCCn1cc(Cl)cn1)c1c(Oc2cccc(C(F)(F)F)c2)nnc2ccccc12 [I-244],3,90 to 100%,90 to 100%,90 to 100%,90 to 100%,90 to 100%,80 to 89%,
